Here are results for nine compounds from patent publication US20230165865A1, “HETEROARYLDIHYDROPYRIMIDINE DERIVATIVES AND METHODS OF TREATING HEPATITIS B INFECTIONS” (Janssen Pharmaceutica NV, priority 2018, published 2023).

Where two headings read alike, the source gives them in different places.

For one series, the system named is HBV. The series can be described thus: Anti-viral assay in HepG2.2.15 cells: anti-HBV activity, HBV DNA in culture medium by qPCR. It is filed as cell-based. Conditions: HepG2.2.15 cells, 6 days treatment, HBV DNA by qPCR, read-out: EC50. Here is the method: (§1) HepG2.2.15 (the HepG2.2.15 cell line can be produced by transfection of the HepG2 cell line as described in Sells, Chen, and Acs 1987 (Proc. Natl. Acad. Sci. USA 84: 1005-1009), and the HepG2 cell line is available from ATCC® under number HB-8065™)
(§2) HepG2.2.15 cells were plated into 96-well plate in 2% FBS culture medium at the density of 40,000 cells/well and 5,000cells/well for HBV inhibitory activity and cytotoxicity determination, respectively. After incubation at 37° C., 5% CO2 overnight, cells were treated with medium containing compounds for 6 days with medium and compounds refreshed after 3 days of treatment. Each compound was tested in a 1:3 serial dilutions at 8 different concentrations in triplicate. The highest concentration of the compounds was 10 uM or 1 uM for anti-HBV activity assay and 100 uM for cytotoxicity determination.
The change of HBV DNA level induced by the compounds was assessed by quantitative real-time polymerase chain reaction (qPCR). Briefly, the HBV DNA in the culture medium was extracted using QIAamp 96 DNA Blood Kit according to the manual and then quantified by real-time PCR assay using the primers and probe in the table 1 below.
(§3) EC50 and CC50 values are calculated by the […] PRISM software.
In general terms: Quantitative PCR measures a nucleic acid by following its amplification.

Series [1] in a line: Cytotoxicity determination in HepG2.2.15 cells (CCK-8 assay). It is filed as cell-based. Conditions: human, 6 days treatment, CCK-8, highest concentration 100 uM. Here is the method:
as §1, §2
Cell viability was determined by CCK-8 assay. After 6 days of compounds treatment, 20 μl CCK-8 reagents were added to each well of cytotoxicity assay plates. Cell plates were incubated at 37° C., 5% CO2 for 2.5 h. The absorbance at 450 nm wavelength and the absorbance at 630 nm wavelength as reference was measured.
as §3

The mark [2] stands for this setting: Hepatitis B virus, HepG2.2.15, 144 h.

A word on the EC50: it is the midpoint of the concentration-response curve. One may read the CC50 as the concentration at which the toxic effect on the cells reaches its halfway point. As to `CCOC(=O)C1=C(CN2CCN3C(=S)N(CC(C)(C)C(=O)O)CC3C2)NC(c2nccs2)=NC1c1ccc(F)c(F)c1Cl` (single isomer, unassigned) [Compound 14A, 3-(7-((6-(2-Chloro-3,4-difluorophenyl)-5-(ethoxycarbonyl)-2-(thiazol-2-yl)-3,6-dihydropyrimidin-4-yl)methyl)-3-thioxohexahydroimidazo[1,5-a]pyrazin-2(3H)-yl)-2,2-dimethylpropanoic acid], the EC50 in the series on HBV (setting [2]) stood at 0.0012 µM. Besides, the CC50 at 6 days in series [1] came to 9.6 µM.
In the case of `COC(=O)C1=C(CN2CCN3C(=S)N(CC(C)(C)C(=O)O)CC3C2)NC(c2nccs2)=NC1c1ccc(F)c(F)c1C` (single isomer, unassigned) [Compound 12B, 3-(7-((6-(3,4-Difluoro-2-methylphenyl)-5-(methoxycarbonyl)-2-(thiazol-2-yl)-3,6-dihydropyrimidin-4-yl)methyl)-3-thioxohexahydroimidazo[1,5-a]pyrazin-2(3H)-yl)-2,2-dimethylpropanoic acid], in the series on HBV (setting [2]), the EC50 was found to be 0.002 µM. This compound also gave a CC50 at 6 days in series [1] of 14.5 µM.
For the compound `CCOC(=O)C1=C(CN2CCN3C(=S)N(CC(C)C(=O)O)C[C@@H]3C2)NC(c2nccs2)=N[C@H]1c1cccc(F)c1C` (single isomer, unassigned) [Compound 27A], in the series on HBV (setting [2]), the EC50 amounted to 0.0048 µM. Further, half-maximal cytotoxicity in series [1] (CC50 at 6 days) was put at 23.6 µM.
For `CCOC(=O)C1=C(CN2CCN3C(=S)N(C)C[C@@H]3[C@H]2C(=O)O)NC(c2nccs2)=N[C@H]1c1cccc(F)c1Cl` (relative stereo) [Compound 19A, (trans)-7-((6-(2-chloro-3-fluorophenyl)-5-(ethoxycarbonyl)-2-(thiazol-2-yl)-3,6-dihydropyrimidin-4-yl)methyl)-2-methyl-3-thioxooctahydro-imidazo[1,5-a]pyrazine-8-carboxylic acid], in that order: 0.0405 µM and 89.9 µM.
In the case of `CCOC(=O)C1=C(CN2CCN3C(=S)N(CC(C)(C)C(=O)O)C[C@@H]3C2)NC(c2nccs2)=N[C@@H]1c1ccc(F)nc1C` (single isomer, unassigned) [Compound 37, 3-(7-((5-(ethoxycarbonyl)-6-(6-fluoro-2-methylpyridin-3-yl)-2-(thiazol-2-yl)-3,6-dihydropyrimidin-4-yl)methyl)-3-thioxohexahydroimidazo[1,5-a]pyrazin-2(3H)-yl)-2,2-dimethylpropanoic acid], in the series on HBV (setting [2]), the EC50 was 0.1 µM. In series [1], this compound returned a CC50 at 6 days not below 100 µM.
On to `CCOC(=O)C1=C(CN2CCN3C(=S)N(CC4(C(=O)O)CC4)CC3C2)NC(c2nccs2)=N[C@H]1c1cccc(F)c1C` (single isomer, unassigned) [Compound 9A], for which the EC50 in the series with HBV was 0.064 µM. The compound further registered a CC50 at 6 days in series [1] of 14.9 µM.
For `CCOC(=O)C1=C(CN2CCN3C(=S)N(C)C[C@@H]3[C@H]2C(=O)O)NC(c2nccs2)=N[C@H]1c1cccc(F)c1C` (single isomer, unassigned) [Compound 35A], in that order: 0.0479 µM and 77 µM.
Consider `CCOC(=O)C1=C(CN2CCN3C(=S)N(CC(C)(C)C(=O)O)CC3C2)NC(c2nccs2)=NC1c1ccc(F)cc1Br` (single isomer, unassigned) [Compound 13A, 3-(7-((6-(2-Bromo-4-fluorophenyl)-5-(ethoxycarbonyl)-2-(thiazol-2-yl)-3,6-dihydropyrimidin-4-yl)methyl)-3-thioxohexahydroimidazo[1,5-a]pyrazin-2(3H)-yl)-2,2-dimethylpropanoic acid], for which, in the series with HBV (setting [2]), the EC50 was found to be 0.001 µM. This compound also yielded a CC50 at 6 days in series [1] of 14.7 µM.
For `CCOC(=O)C1=C(CN2CCN3C(=S)N(CC(C)(C)C(=O)O)CC[C@H]3C2)NC(c2nccs2)=N[C@H]1c1cccc(F)c1C` [Compound 6, 3-((S)-2-(((S)-5-(ethoxycarbonyl)-6-(3-fluoro-2-methylphenyl)-2-(thiazol-2-yl)-3,6-dihydropyrimidin-4-yl)methyl)-6-thioxohexahydro-2H-pyrazino[1,2-c]pyrimidin-7(6H)-yl)-2,2-dimethylpropanoic acid], in the series on HBV (setting [2]), the EC50 was 0.067 µM. The compound also returned a CC50 at 6 days in series [1] of 20.5 µM.
